Measured values as given in patent US20150342954A1, “2-BENZYL, 3-(PYRIMIDIN-2-YL) SUBSTITUTED PYRAZOLES USEFUL AS SGC STIMULATORS” (IRONWOOD PHARMACEUTICALS, INC., priority 2011, published 2015).
Where two headings read alike, the source gives them in different places.

Target: T1, soluble guanylate cyclase (sGC) (Homo sapiens, UniProt Q02108+Q02153)
T1 construct: endogenously expressing soluble guanylate cyclase (sGC); endogenous in cells; host or cells: HEK293
T1 sequence (Q02153 1-619): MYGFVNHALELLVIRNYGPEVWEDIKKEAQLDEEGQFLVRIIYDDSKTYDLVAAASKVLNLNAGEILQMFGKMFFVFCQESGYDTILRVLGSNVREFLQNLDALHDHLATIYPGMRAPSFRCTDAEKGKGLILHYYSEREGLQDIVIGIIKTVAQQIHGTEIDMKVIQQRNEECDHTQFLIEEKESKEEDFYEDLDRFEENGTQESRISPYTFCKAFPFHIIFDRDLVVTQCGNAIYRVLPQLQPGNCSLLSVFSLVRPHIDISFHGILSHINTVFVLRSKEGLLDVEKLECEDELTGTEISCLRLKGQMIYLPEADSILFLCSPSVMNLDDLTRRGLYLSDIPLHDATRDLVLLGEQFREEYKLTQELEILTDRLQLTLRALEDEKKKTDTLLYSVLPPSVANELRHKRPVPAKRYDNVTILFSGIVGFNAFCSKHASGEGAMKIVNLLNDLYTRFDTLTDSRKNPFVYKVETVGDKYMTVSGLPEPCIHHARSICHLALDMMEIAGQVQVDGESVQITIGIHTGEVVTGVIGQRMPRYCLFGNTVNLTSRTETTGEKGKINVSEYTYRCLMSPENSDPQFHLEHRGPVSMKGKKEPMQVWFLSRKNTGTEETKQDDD
T1 sequence (Q02108 1-690): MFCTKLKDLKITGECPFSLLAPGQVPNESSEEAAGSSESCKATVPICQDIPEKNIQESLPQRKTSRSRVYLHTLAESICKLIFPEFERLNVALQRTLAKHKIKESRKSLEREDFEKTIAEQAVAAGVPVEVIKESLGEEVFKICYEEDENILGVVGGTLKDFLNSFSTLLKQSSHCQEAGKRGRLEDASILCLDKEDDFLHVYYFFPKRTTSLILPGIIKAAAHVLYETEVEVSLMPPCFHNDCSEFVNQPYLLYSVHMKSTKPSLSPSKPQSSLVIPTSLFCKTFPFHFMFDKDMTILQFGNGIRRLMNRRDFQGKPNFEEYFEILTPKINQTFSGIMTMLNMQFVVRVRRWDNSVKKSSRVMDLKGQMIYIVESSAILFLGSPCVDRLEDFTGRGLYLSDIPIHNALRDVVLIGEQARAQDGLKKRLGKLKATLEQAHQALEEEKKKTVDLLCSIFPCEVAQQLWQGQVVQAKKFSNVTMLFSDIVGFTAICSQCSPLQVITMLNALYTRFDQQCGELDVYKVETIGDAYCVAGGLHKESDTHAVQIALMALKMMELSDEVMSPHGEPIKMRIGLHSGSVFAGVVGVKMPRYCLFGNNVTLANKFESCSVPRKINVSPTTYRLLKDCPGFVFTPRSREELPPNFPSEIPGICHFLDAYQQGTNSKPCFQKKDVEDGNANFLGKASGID
Experiment: sGC-HEK-cGMP assay (run with SNP incubation)
Type: cell-based
Details: for Emax: 10 μM SNP, 100% = 30 μM BAY 41-2272 with 10 μM SNP, read-out: HEK assay Emax-unconstrained (Percent); for HEK MEC-10: concentration that would elicit 10% of the Emax in the presence of 10 μM SNP; for EC50: in the presence of 10 μM SNP
Method: Biological Activity Measurement by the sGC-HEK-cGMP Assay
(Assay Run with SNP Incubation)
Human embryonic kidney cells (HEK293), endogenously expressing soluble guanylate cyclase (sGC), were used to evaluate the activity of test compounds. Compounds stimulating the sGC receptor should cause an increase in the intracellular concentration of cGMP. HEK 293 cells were seeded in Dulbecco's Modification of Eagle's Medium supplemented with fetal bovine serum (10% final) and L-glutamine (2 mM final) in a 2004 volume at a density of 1×10^5 cells/well in a poly-D-lysine coated 96 well flat bottom plate and grown overnight at 37° C. Medium was aspirated and cells were washed with 1× Hank's Buffered Saline Salt Solution (2004). Cells were then incubated for 15 minutes at 37° C. with 0.5 mM 3-isobutyl-1-methylxanthine (2004). Test article and sodium nitroprusside were then added to the assay mixture (24 each) and incubated at 37° C. for 10 minutes. After the 10 minute incubation, the assay mixture was aspirated and 0.1M HCl (2004) was added to the cells. The plate was incubated at 4° C. for 30 minutes in the 0.1M HCl to stop the reaction and lysed the cells. The plates were then centrifuged at 1,200 g for 5 minutes at room temperature. Supernatants were collected and transferred to a new flat bottom 96 well plate for analysis. Vehicle controls were carried out using DMSO (1%). A known sGC stimulator, BAY 41-2272, was used as the positive control. Samples were diluted with an equal volume of 1 M Ammonium Acetate (pH 7) to neutralize samples for better chromatography. A 2×cGMP standard curve was prepared in 0.1 M HCl and then diluted with an equal volume of 1 M Ammonium Acetate, with the following final concentrations in nM: 1024, 512, 256, 128, 64, 32, 16, 8, 4, 2, 1.cGMP concentrations were determined from each sample using the LC/MS conditions (Table 2 below) and calculated standard curve. EC50 values were calculated from concentration-response curves generated with GraphPad Prism Software.

[1] = Table 3C, top of concentration-response curve not fitted to 100%
[2] = Table 3F, read-out: HEK assay EC50
[3] = top of concentration-response curve not fitted to 100%, Table 3F, read-out: HEK assay EC50-unconstrained
[4] = Table 3A, top of concentration-response curve not fitted to 100%
[5] = Table 3D, read-out: HEK assay EC50
[6] = top of concentration-response curve not fitted to 100%, Table 3D, read-out: HEK assay EC50-unconstrained
[7] = top of concentration-response curve not fitted to 100%, Table 3E, read-out: HEK assay EC50-unconstrained

Row | SMILES | Emax [1] [%] | HEK MEC-10 (Table 3F) | EC50 [2] [µM] | EC50 [3] [µM] | Emax [4] [%] | HEK MEC-10 (Table 3D) | EC50 [5] [µM] | EC50 [6] [µM] | other results
1 | O=c1[nH]c(-c2cc(-c3ccon3)n(Cc3ccccc3F)n2)ncc1S(=O)(=O)N1CCCC1 [Compound 21] | – | – | – | – | 60 to 80 | C (0.1 to <1 μM) | < 20 | 0.5 to 1 | –
2 | Oc1nc(-c2cc(-c3ccon3)n(Cc3ccccc3F)n2)ncc1Sc1ccccn1 [Compound 18, 2-(1-(2-fluorobenzyl)-5-(isoxazol-3-yl)-1H-pyrazol-3-yl)-5-(pyridin-2-ylthio)pyrimidin-4-ol] | – | – | – | – | 60 to 80 | C (0.1 to <1 μM) | 20 to 40 | 10 to 50 | –
3 | Nc1nc(-c2cc(-c3ccon3)n(Cc3ccccc3F)n2)ncc1N1CC(C(F)(F)F)OC1=O (stereo not drawn) [Compound 83, 3-(4-amino-2-(1-(2-fluorobenzyl)-5-(isoxazol-3-yl)-1H-pyrazol-3-yl)pyrimidin-5-yl)-5-(trifluoromethyl)oxazolidin-2-one] | – | – | – | – | – | – | – | – | EC50 (Table 3E, read-out: HEK assay EC50): 60 to 100 µM; EC50 [7]: 0.5 to 1 µM
4 | Nc1nc(-c2cc(-c3ccon3)n(Cc3ccccc3F)n2)ncc1NC(=O)C1(c2cccc(F)c2)CC1 [Compound 11] | – | – | – | – | 60 to 80 | B (0.01 to <0.1 μM) | < 20 | 0.01 to 0.5 | –
5 | Oc1nc(-c2cc(-c3ccon3)n(Cc3ccccc3F)n2)ncc1Sc1ccc(F)cc1 [Compound 4, 2-(1-(2-fluorobenzyl)-5-(isoxazol-3-yl)-1H-pyrazol-3-yl)-5-(4-fluorophenylthio)pyrimidin-4-ol] | – | – | – | – | 60 to 80 | C (0.1 to <1 μM) | < 20 | 1 to 5 | –
6 | CN(C1CC1)S(=O)(=O)c1cnc(-c2cc(-c3ccon3)n(Cc3ccccc3F)n2)[nH]c1=O [Compound 14] | – | – | – | – | 40 to 60 | B (0.01 to <0.1 μM) | < 20 | 0.01 to 0.5 | –
7 | Oc1nc(-c2cc(-c3ccon3)n(Cc3ccccc3F)n2)ncc1Sc1ccc(C(F)(F)F)cc1 [Compound 17, 2-(1-(2-fluorobenzyl)-5-(isoxazol-3-yl)-1H-pyrazol-3-yl)-5-(4-(trifluoromethyl)phenylthio)pyrimidin-4-ol] | – | – | – | – | – | – | 1200 to 7000 | – | –
8 | CN(C)S(=O)(=O)c1cnc(-c2cc(-c3ccon3)n(Cc3ccccc3F)n2)[nH]c1=O [Compound 22] | – | – | – | – | 80 to 100 | D (1 to <10 μM) | < 20 | 1 to 5 | –
9 | Oc1nc(-c2cc(-c3ncco3)n(Cc3ccccc3F)n2)ncc1Sc1ccccn1 [Compound 7, 2-(1-(2-fluorobenzyl)-5-(oxazol-2-yl)-1H-pyrazol-3-yl)-5-(pyridin-2-ylthio)pyrimidin-4-ol] | – | – | – | – | 60 to 80 | B (0.01 to <0.1 μM) | < 20 | 0.01 to 0.5 | –
10 | Nc1nc(-c2cc(-c3ccon3)n(Cc3ccccc3F)n2)ncc1NC(=O)C1(c2ccc(F)cc2)CC1 [Compound 13] | – | – | – | – | 80 to 100 | B (0.01 to <0.1 μM) | < 20 | 0.01 to 0.5 | –
11 | Oc1nc(-c2cc(-c3ccco3)n(Cc3ccccc3F)n2)ncc1F [Compound 90] | – | – | – | – | – | – | – | – | Emax (Table 3B, top of concentration-response curve not fitted to 100%): 40 to 60%; EC50 [7]: 0.01 to 0.5 µM

Continued, in another order:

Row | Emax [1] [%] | HEK MEC-10 (Table 3F) | EC50 [2] [µM] | EC50 [3] [µM] | Emax [4] [%] | HEK MEC-10 (Table 3D) | EC50 [5] [µM] | EC50 [6] [µM] | SMILES | other results
12 | 20 to 40 | D (1 to <10 μM) | 40 to 60 | 1 to 5 | – | – | – | – | N#Cc1nc(-c2cc(-c3ccon3)n(Cc3ccccc3F)n2)ncc1F [Compound 115] | –
13 | 80 to 100 | A (0.001 to <0.01 μM) | < 20 | 0.01 to 0.5 | – | – | – | – | Nc1nc(-c2cc(-c3ccon3)n(Cc3cccc(F)c3F)n2)ncc1NC(=O)c1ccc(C(F)(F)F)cc1 [Compound 101] | –
14 | 60 to 80 | B (0.01 to <0.1 μM) | < 20 | 0.01 to 0.5 | – | – | – | – | Nc1nc(-c2cc(-c3ccon3)n(Cc3ccccc3F)n2)ncc1NC(=O)CCC(F)(F)F [Compound 111] | –
15 | – | – | – | – | 40 to 60 | D (1 to <10 μM) | < 20 | 0.01 to 0.5 | N#CC1(C(=O)Nc2cnc(-c3cc(-c4ccon4)n(Cc4cccc(F)c4F)n3)nc2N)CC1 [Compound 36] | –
16 | 20 to 40 | D (1 to <10 μM) | 60 to 100 | – | – | – | – | – | COc1nc(-c2cc(-c3ccon3)n(Cc3ccccc3F)n2)nc(Cl)c1F [Compound 116] | –
17 | – | – | – | – | – | E (10 to 50 μM) | – | – | Fc1cnccc1Cn1nc(-c2ncccn2)cc1-c1ccon1 [Compound 23] | –
18 | 80 to 100 | A (0.001 to <0.01 μM) | < 20 | 0.01 to 0.5 | – | – | – | – | Nc1nc(-c2cc(-c3ccon3)n(Cc3cccc(F)c3F)n2)ncc1NC(=O)c1ccc[nH]1 [Compound 103] | –
19 | – | – | – | – | 80 to 100 | C (0.1 to <1 μM) | 20 to 40 | 10 to 50 | Nc1ccnc(-c2cc(-c3ccon3)n(Cc3cccc(F)c3F)n2)n1 [Compound 37] | –
20 | 40 to 60 | C (0.1 to <1 μM) | < 20 | 1 to 5 | – | – | – | – | CN(C)Cc1cccc(C(=O)Nc2cnc(-c3cc(-c4ccon4)n(Cc4cccc(F)c4F)n3)nc2N)c1 [Compound 104] | –
21 | 80 to 100 | D (1 to <10 μM) | < 20 | 5 to 10 | – | – | – | – | Nc1nc(-c2cc(-c3ccon3)n(Cc3cccc(F)c3F)n2)ncc1NC(=O)c1ccn[nH]1 [Compound 106] | –
22 | – | – | – | – | 40 to 60 | C (0.1 to <1 μM) | 20 to 40 | 1 to 5 | Oc1nc(-c2cc(-c3ncco3)n(Cc3ccccc3F)n2)ncc1Sc1ccccc1 [Compound 20, 2-(1-(2-fluorobenzyl)-5-(oxazol-2-yl)-1H-pyrazol-3-yl)-5-(phenylthio)pyrimidin-4-ol] | –
23 | 40 to 60 | C (0.1 to <1 μM) | < 20 | 1 to 5 | – | – | – | – | Nc1nc(-c2cc(-c3ccon3)n(Cc3cccc(F)c3F)n2)ncc1NC(=O)C12CC3CC(CC(O)(C3)C1)C2 [Compound 107] | –
